# Test results as given in patent US12421556B2, “Materials and methods for stratifying and treating cancers” (The Institute of Cancer Research:Royal Cancer Hospital, priority 2017, dated 2025).
# Experiments:
# [1] = system: advanced soft tissue sarcoma; assay: RMH-SARC retrospective cohort: advanced STS patients treated with pazopanib, PFS, OS and RECIST 1.1 response; assay type: in vivo, human
# Source text: Collection and analysis of anonymised archival FFPE tissue and associated clinical data was approved in as a sub-study protocol amendment to the Royal Marsden-sponsored Elucidation of a Molecular signature of Pazopanib Response in Advanced soft tissue Sarcoma including solitary fibrous tumours (EMPRASS) study. (RMH Committee for Clinical Research reference 4107, NHS Research Ethic Committee reference 14/WA/0164). This cohort is referred to as RMH-SARC in this manuscript.
# Patients were retrospectively identified for inclusion by search of institutional database and electronic patient records compiled during routine clinical practice. Eligibility criteria for inclusion were: i) histopathological diagnosis of soft tissue tumour as confirmed by contemporaneous report by specialist sarcoma histopathologist; ii) received at least one dose of pazopanib for treatment of unresectable or advanced STS; iii) available FFPE tumour specimen, obtained from patient prior to first dose of pazopanib. Treatment and response monitoring was as per standard institutional practice, with pazopanib at 800 mg once daily until disease progression, intolerable toxicity or significant clinical deterioration. Dose interruption and/or reduction were instigated based on standard institutional guidelines and the discretion of the treating physician. Baseline clinico-pathological characteristics and survival data were collected on retrospective review of contemporaneous electronic medical records. All related radiological imaging was retrospectively reviewed and disease response assessed according to RECIST 1.1. This manuscript is written according to the Reporting Recommendations for Tumor Marker Prognostic Studies (REMARK) guidelines15.
# The stepwise primary objectives were to assess whether a surrogate of two immunohistochemical markers (FGFR1 and PDGFRA) and TP53 mutation status had statistical significant prognostic information for advanced STS. In this event, the two biomarkers panel were tested to determine if there is added statistically significant prognostic information to standard clinicopathological variables in multivariable comparisons. The secondary analyses included identification of biological subgroups based on gene expression profiles, and evaluation of the significance of these biological subgroups association with patient outcome. Progression free survival (PFS—defined as time in months from first dose of pazopanib to radiological disease progression or death from any cause) was the primary outcome endpoint, with overall survival (OS—defined as a time in months from first dose of pazopanib to death from any cause) as the secondary outcome endpoint. Data cut-off for survival follow-up was 30 Nov. 2016. Statistical analyses were performed by two senior statisticians. The Kaplan-Meier method was used to estimate PFS and OS, and the log-rank test to compare survival in different strata. Multivariable cox regression model was used to estimate the significance adjusted for the standard clinicopathological variables (including age, tumour grade, performance status and histological subtype). Proportional hazard assumption was tested using Schoenfeld residuals, and where deemed appropriate, Restricted Mean Survival was used. Interaction tests between FGFR1 and PDGFRA expression to predict for survival were evaluated for PFS and OS respectively. Likelihood ratio tests based on proportional hazards regression were used to test the prognostic information of all biomarkers. The quantification of the amount of prognostic information provided by one biomarker was assessed by the likelihood ratio χ^2 value (LRχ^2), and the additional information of one biomarker to biomarker score was measured by the increase of the likelihood ratio χ^2 value (ΔLRχ^2) obtained from the proportional hazards model.
# Patients were identified by retrospective search of prospectively compiled institutional database and electronic patient records. […]
# STS subtypes = settings: randomised phase II trial; cited from earlier work
# advanced STS = settings: 1st line, in combination with doxorubicin; cited from earlier work
# [2] = F-Lo/P-Hi (FGFR1-Lo/PDGFRA-Hi) subgroup
# [3] = gene expression subgroup A (IHCneg, TP53 wt)
molecule,measurement,setting,value
"Cc1ccc(Nc2nccc(N(C)c3ccc4c(C)n(C)nc4c3)n2)cc1S(N)(=O)=O [pazopanib, Pazopanib]",patients who had died (overall survival event),"[1]; 31 of 38 patients, median follow-up 26.2 months",82%
same,patients with a progression-free survival event,"[1]; 35 of 38 patients, median follow-up 26.2 months",92%
same,median OS,[1]; [2],1.7 months
same,median PFS,[1]; [2],1.4 months
same,"PFS HR, multivariable analysis","[1]; F-Lo/P-Hi v. IHCneg, adjusted for clinico-pathological factors, 95% CI 3.86-40.72",12.54
same,"OS HR, multivariable analysis","[1]; F-Lo/P-Hi v. IHCneg, adjusted, 95% CI 5.90-82.81",22.11
same,"OS HR, univariate analysis","[1]; FGFR1-Lo/PDGFRA-Hi v. IHCneg, 95% CI 2.51-17.91",6.70
same,"PFS HR, univariate analysis","[1]; FGFR1-Lo/PDGFRA-Hi v. IHCneg, 95% CI 3.58-25.94",9.64
same,progression as best response,"[1]; RECIST 1.1, 17/38",44.7%
same,objective radiological response,"[1]; RECIST 1.1, best response, 1/38",2.6%
same,stable disease,"[1]; RECIST 1.1, best response, 20/38",52.6%
same,"PFS HR, univariate analysis","[1]; TP53 mutated v. wildtype, all 38 patients, 95% CI 0.83-3.76, P 0.14",1.77
same,"OS HR, univariate analysis","[1]; TP53 mutated v. wildtype, all 38 patients, 95% CI 1.15-5.51, P 0.02",2.51
same,PFS HR,"[1]; TP53 mutation v. wildtype in 31 IHCneg cases, 95% CI 1.03-5.34, p=0.04",2.34
same,OS HR,"[1]; TP53 mutation v. wildtype in 31 IHCneg cases, 95% CI 1.44-8.39, p=0.003",3.47
same,"PFS HR, multivariable analysis","[1]; TP53 mutation v. wildtype, adjusted, 95% CI 1.45-10.86, p=0.007",3.97
same,"OS HR, multivariable analysis","[1]; TP53 mutation v. wildtype, adjusted, 95% CI 2.56-24.41",7.90
same,median OS,[1]; [3],34.4 months
same,median PFS,[1]; [3],12.8 months
same,OS HR,"[1]; high v. low PDGFRA expression, 95% CI 1.01-4.35, p=0.04",2.08
same,median PFS,[1]; patients with partial response or stable disease,6.4 months
same,OS HR,"[1]; subgroup A v. subgroup B or C, 22 IHCnegTP53 wt patients, 95% CI 0.04-0.96, p=0.03",0.20
same,PFS HR,"[1]; subgroup A v. subgroup B or C, 22 IHCnegTP53 wt patients, 95% CI 0.09-0.85, p=0.02",0.27
same,median OS,"[1]; whole cohort, 38 patients",9.5 months
same,median PFS,"[1]; whole cohort, 38 patients, pazopanib 800 mg once daily",3.7 months
"CNC(=O)c1cc(Oc2ccc(NC(=O)Nc3ccc(Cl)c(C(F)(F)F)c3)c(F)c2)ccn1 [regorafenib, Regorafenib]",efficacy in STS subtypes,STS subtypes,efficacy in several STS subtypes but not adipocytic tumours
olaratumab,OS benefit,advanced STS,marked OS benefit
